The values that follow come from patent US20020173452A1, “Cytostatic-glycoconjugates having specifically cleavable linking units” (priority 2000, published 2002).

pIC50: −log10 of the molar value. Where a SMILES comes first, the peptide text is derived from it. [ ]: non-standard residue; d: D form. The star is where a group is joined. ξ: configuration not given here. Camptothecin(20R,20-O) = CC[C@]1(O*)C(=O)OCc2c1cc1n(c2=O)Cc2cc3ccccc3nc2-1; X9 = C[C@H]1O[C@@H](Oc2ccc(NC(=S)*)cc2)[C@@H](O)[C@@H](OCCO)[C@H]1O; X8 = C[C@H]1OC(Oc2ccc(NC(=S)*)cc2)[C@@H](O)[C@@H](OCC(=O)O)[C@H]1O; X4 = CO[C@H]1[C@H](O)[C@@H](Oc2ccc(NC(=S)*)cc2)O[C@@H](C)[C@H]1O; X6 = CO[C@@H]1[C@H](O)[C@H](Oc2ccc(NC(=S)*)cc2)O[C@H](C)[C@@H]1O; X1 = CO[C@H]1[C@@H](O)[C@@H](C)OC(Oc2ccc(NC(=S)*)cc2)[C@H]1O; X7 = OC[C@H]1OC(Oc2ccc(NC(=S)*)cc2)[C@@H](O)[C@@H](O)[C@H]1O; X2 = CC[C@@]1(O*)C(=O)OCc2c1cc1n(c2=O)Cc2cc3ccccc3nc2-1; Ile(3ξ) = CCC(C)[C@H](N)C(=O)O; ξP = O=C(O)C1CCCN1

What all share (experiment): Growth inhibition test (MTT) for cytotoxic properties on tumour cell lines
Holding throughout (assay type): cell-based

Data set [1] deals with HT29 human large intestine cell line. Conditions: HT29 cells, growth checked after day 6, read-out: IC50 of the cytotoxic action on tumour cell lines, HT29. As to the method:
(§1) A: Growth Inhibition Test for the Determination of the Cytotoxic Properties on Various Tumour Cell Lines
(§2) The human large intestine cell lines SW 480 and HT29 (ATCC No. CCL 228 and HTB38 and the mouse melanoma cell line B16F10 (CRL 6475) were grown to confluence in Roux dishes in RPMI 1640 medium with addition of 10% FCS. They were then trypsinized and taken up in RPMI plus 10% FCS to a cell count of 50,000 cells or, for B16F10, 20,000 cells per ml. 100 μl of cell suspension/well were added to a 96 microwell plate and incubated at 37° C. for 1 day in a CO2 incubator. A further 100 μl of RPMI medium and 1 μl of DMSO were then added with the test substances. The growth was checked after day 6. For this, 25 μl of MTT solution (3-(4,5-dimethylthiazol-2-yl)-2,5-diphenyltetrazolium bromide) was added to each well at a starting concentration of 5 mg/ml of H2O. The plate was incubated at 37° C. for 5 hours in a CO2 incubator. The medium was then aspirated and 100 μl of 1-propanol/well were added. After shaking with 100 μl of H2O for 30 min, the extinction was measured at 595 nm using a Multiplate Reader (BIO-RAD 3550-UV).
(§3) The cytostatic action is indicated in Table 1 as an IC50 value, in each case for the individual cell lines.

Data set [2] concerns SW 480 human large intestine cell line. Conditions: SW480 cells, growth checked after day 6, read-out: IC50 of the cytotoxic action on tumour cell lines, SW480. As to the method: as §1, §2, §3
In data set [3] the test system is B16F10 mouse melanoma cell line. Conditions: B16F10 cells, growth checked after day 6, read-out: IC50 of the cytotoxic action on tumour cell lines, B16F10. As for the experimental part: as §1, §2, §3

In general, pIC50 refers to the IC50 on a negative log10 scale, so that one unit is a factor of ten. For the compound `CC[C@@]1(OC(=O)[C@@H](NC(=O)[C@@H]2CCCN2C(=O)[C@H](CC(C)C)NC(=O)CNC(=O)[C@H](CC(C)C)NC(=O)[C@@H]2CCCN2C(=S)Nc2ccc(O[C@H]3O[C@@H](C)[C@@H](O)[C@@H](OC)[C@@H]3O)cc2)C(C)C)C(=O)OCc2c1cc1n(c2=O)Cc2cc3ccccc3nc2-1` [Example 21] (X4-PLGLPV-X2), the pIC50 was 6.60 in data set [1], 7.00 in data set [2] and 6.10 in data set [3].

As for `CC[C@]1(OC(=O)[C@H](NC(=O)[C@@H](CC(N)=O)NC(=O)[C@@H](CC(C)C)NC(=O)CNC(=O)[C@H](CC(C)C)NC(=O)[C@H]2CCCN2C(=S)Nc2ccc(O[C@@H]3O[C@H](C)[C@H](O)[C@H](OCCO)[C@@H]3O)cc2)C(C)C)C(=O)OCc2c1cc1n(c2=O)Cc2cc3ccccc3nc2-1` [Example 25] (X9-[dP]LG[dL][dN][dV]-{Camptothecin(20R,20-O)}), the pIC50 in data set [1] was 6.82; in data set [2], 6.74; in data set [3], 6.10.

Turning to `CC[C@@]1(OC(=O)[C@H](NC(=O)[C@@H](CC(N)=O)NC(=O)[C@@H](CC(C)C)NC(=O)CNC(=O)[C@H](CC(C)C)NC(=O)[C@H]2CCCN2C(=S)Nc2ccc(OC3O[C@H](C)[C@H](O)[C@H](OCC(=O)O)[C@@H]3O)cc2)C(C)C)C(=O)OCc2c1cc1n(c2=O)Cc2cc3ccccc3nc2-1` (stereo partly drawn) [Example 23] (X8-[dP]LG[dL][dN][dV]-X2), the negative logarithm of the IC50 (pIC50) was 6.92 in data set [1], 6.70 in data set [2] and 6.10 in data set [3].

For the compound `CC[C@@]1(OC(=O)[C@@H](NC(=O)[C@@H](C)NC(=O)[C@H](CC(C)C)NC(=O)CNC(=O)[C@H](CC(C)C)NC(=O)[C@@H]2CCCN2C(=S)Nc2ccc(O[C@H]3O[C@@H](C)[C@@H](O)[C@@H](OC)[C@@H]3O)cc2)C(C)C)C(=O)OCc2c1cc1n(c2=O)Cc2cc3ccccc3nc2-1` [Example 14] (X4-PLGL[dA]V-X2), the negative logarithm of the IC50 (pIC50) in data set [1] was 6.05; in data set [2], 6.15; in data set [3] it was 5.70.

As for `CC[C@@]1(OC(=O)[C@@H](NC(=O)[C@H](Cc2ccccc2)NC(=O)[C@H](CC(C)C)NC(=O)CNC(=O)[C@H](CC(C)C)NC(=O)[C@@H]2CCCN2C(=S)Nc2ccc(O[C@H]3O[C@@H](C)[C@@H](O)[C@@H](OC)[C@@H]3O)cc2)C(C)C)C(=O)OCc2c1cc1n(c2=O)Cc2cc3ccccc3nc2-1` [Example 16] (X4-PLGLFV-X2), the pIC50 is 7.10 in data set [1], 7.22 in data set [2] and 6.60 in data set [3].

For the compound `CC[C@@]1(OC(=O)[C@@H](NC(=O)[C@H](CO)NC(=O)[C@H](CC(C)C)NC(=O)CNC(=O)[C@H](CC(C)C)NC(=O)[C@@H]2CCCN2C(=S)Nc2ccc(O[C@H]3O[C@@H](C)[C@@H](O)[C@@H](OC)[C@@H]3O)cc2)C(C)C)C(=O)OCc2c1cc1n(c2=O)Cc2cc3ccccc3nc2-1` [Example 17] (X4-PLGLSV-X2), the pIC50 was 7.15 in data set [1], 7.40 in data set [2] and 6.70 in data set [3].

Regarding `CC[C@@]1(OC(=O)[C@@H](NC(=O)[C@@H](NC(=O)[C@H](CC(C)C)NC(=O)CNC(=O)[C@H](CC(C)C)NC(=O)[C@@H]2CCCN2C(=S)Nc2ccc(O[C@H]3O[C@@H](C)[C@@H](O)[C@@H](OC)[C@@H]3O)cc2)C(C)C)C(C)C)C(=O)OCc2c1cc1n(c2=O)Cc2cc3ccccc3nc2-1` [Example 15] (X4-PLGLVV-X2), the negative-log IC50 (pIC50) is 7.00 in data set [1], 7.10 in data set [2] and 6.40 in data set [3].

Regarding `CC[C@@]1(OC(=O)[C@@H](NC(=O)CNC(=O)[C@H](CC(C)C)NC(=O)CNC(=O)[C@H](CC(C)C)NC(=O)[C@@H]2CCCN2C(=S)Nc2ccc(O[C@H]3O[C@@H](C)[C@@H](O)[C@@H](OC)[C@@H]3O)cc2)C(C)C)C(=O)OCc2c1cc1n(c2=O)Cc2cc3ccccc3nc2-1` [Example 20] (X4-PLGLGV-X2), the pIC50 in data set [1] was 6.60; in data set [2], 6.92; in data set [3], 6.10.

`CC[C@@]1(OC(=O)[C@@H](NC(=O)[C@H](C)NC(=O)[C@H](CC(C)C)NC(=O)CNC(=O)[C@H](CC(C)C)NC(=O)[C@@H]2CCCN2C(=S)Nc2ccc(O[C@H]3O[C@@H](C)[C@@H](O)[C@@H](OC)[C@@H]3O)cc2)C(C)C)C(=O)OCc2c1cc1n(c2=O)Cc2cc3ccccc3nc2-1` [Example 22] (X4-PLGLAV-X2): the pIC50 in data set [1] was 7.15; in data set [2] it was 7.40; in data set [3] it was 6.60.

For the compound `CC[C@@]1(OC(=O)[C@H](NC(=O)[C@@H](CC(N)=O)NC(=O)[C@@H](CC(C)C)NC(=O)CNC(=O)[C@H](CC(C)C)NC(=O)[C@H]2CCCN2C(=S)Nc2ccc(OC3O[C@H](CO)[C@H](O)[C@H](O)[C@@H]3O)cc2)C(C)C)C(=O)OCc2c1cc1n(c2=O)Cc2cc3ccccc3nc2-1` (stereo partly drawn) [Example 24] (X7-[dP]LG[dL][dN][dV]-X2), the pIC50 in data set [1] is 7.00; in data set [2], 6.70; in data set [3] it was 6.30.

With `CC[C@@]1(OC(=O)[C@@H](NC(=O)[C@H](CCC(=O)O)NC(=O)[C@H](CC(C)C)NC(=O)CNC(=O)[C@H](CC(C)C)NC(=O)[C@@H]2CCCN2C(=S)Nc2ccc(O[C@H]3O[C@@H](C)[C@@H](O)[C@@H](OC)[C@@H]3O)cc2)C(C)C)C(=O)OCc2c1cc1n(c2=O)Cc2cc3ccccc3nc2-1` [Example 19] (X4-PLGLEV-X2), the figures for the pIC50 in data set [1], in data set [2] and in data set [3] were 6.40, 6.70 and 5.82, respectively.

For `CCC(C)[C@H](NC(=O)[C@H](CC(C)C)NC(=O)CNC(=O)[C@H](CC(C)C)NC(=O)[C@@H]1CCCN1C(=S)Nc1ccc(O[C@H]2O[C@@H](C)[C@@H](O)[C@@H](OC)[C@@H]2O)cc1)C(=O)N[C@H](C(=O)O[C@]1(CC)C(=O)OCc2c1cc1n(c2=O)Cc2cc3ccccc3nc2-1)C(C)C` (stereo partly drawn) [Example 18] (X4-PLGL[Ile(3ξ)]V-X2), the figures for the negative logarithm of the IC50 (pIC50) in data set [1], in data set [2] and in data set [3] were 6.70, 7.00 and 6.22, respectively.

For the compound `CC[C@@]1(OC(=O)[C@H](NC(=O)[C@@H](Cc2c[nH]cn2)NC(=O)[C@@H](CC(C)C)NC(=O)CNC(=O)[C@H](CC(C)C)NC(=O)[C@H]2CCCN2C(=S)Nc2ccc(OC3O[C@H](C)[C@H](O)[C@H](OC)[C@@H]3O)cc2)C(C)C)C(=O)OCc2c1cc1n(c2=O)Cc2cc3ccccc3nc2-1` (stereo partly drawn) [Example 13] (X1-[dP]LG[dL][dH][dV]-X2), the pIC50 was 7.15 in data set [1], 7.00 in data set [2] and 6.70 in data set [3].

`CC[C@]1(OC(=O)[C@H](NC(=O)[C@@H](CC(N)=O)NC(=O)[C@@H](CC(C)C)NC(=O)CNC(=O)[C@H](CC(C)C)NC(=O)C2CCCN2C(=O)CNC(=S)Nc2ccc(O[C@@H]3O[C@H](C)[C@H](O)[C@H](OC)[C@@H]3O)cc2)C(C)C)C(=O)OCc2c1cc1n(c2=O)Cc2cc3ccccc3nc2-1` (stereo partly drawn) [Example 27] (X6-G[ξP]LG[dL][dN][dV]-{Camptothecin(20R,20-O)}): the pIC50 in data set [1] was 7.82; in data set [2] it was 7.60; in data set [3] it was 7.30.

On to `CC[C@@]1(OC(=O)[C@H](NC(=O)[C@@H](Cc2c[nH]cn2)NC(=O)[C@@H](CC(C)C)NC(=O)CNC(=O)[C@H](CC(C)C)NC(=O)[C@H]2CCCN2C(=S)Nc2ccc(OC3O[C@H](C)[C@H](O)[C@H](OC)[C@@H]3O)cc2)C(C)C)C(=O)OCc2c1cc1n(c2=O)Cc2cc3ccccc3nc2-1` (stereo partly drawn) [Example 11] (X1-[dP]LG[dL][dH][dV]-X2), for which the figures for the pIC50 in data set [1], in data set [2] and in data set [3] were 7.10, 6.70 and 6.52, respectively.

For the compound `CC[C@@]1(OC(=O)[C@H](NC(=O)[C@@H](Cc2c[nH]cn2)NC(=O)CNC(=O)[C@H](CC(C)C)NC(=O)[C@H]2CCCN2C(=S)Nc2ccc(OC3O[C@H](C)[C@H](O)[C@H](OC)[C@@H]3O)cc2)C(C)C)C(=O)OCc2c1cc1n(c2=O)Cc2cc3ccccc3nc2-1` (stereo partly drawn) [Example 1], the pIC50 in data set [1] is 7.15; in data set [2] it was 6.82; in data set [3] it was 6.82.

On to `CC[C@]1(OC(=O)[C@H](NC(=O)[C@@H](CCCCN)NC(=O)[C@@H](CC(C)C)NC(=O)CNC(=O)[C@H](CC(C)C)NC(=O)[C@H]2CCCN2C(=S)Nc2ccc(O[C@@H]3O[C@H](C)[C@H](O)[C@H](OC)[C@@H]3O)cc2)C(C)C)C(=O)OCc2c1cc1n(c2=O)Cc2cc3ccccc3nc2-1` [Example 10] (X6-[dP]LG[dL][dK][dV]-{Camptothecin(20R,20-O)}), for which the pIC50 in data set [1] is 7.15; in data set [2], 7.10; in data set [3], 6.82.

In the case of `CC[C@@]1(OC(=O)[C@H](NC(=O)[C@@H](CSC)NC(=O)[C@@H](CC(C)C)NC(=O)CNC(=O)[C@H](CC(C)C)NC(=O)[C@H]2CCCN2C(=S)Nc2ccc(OC3O[C@H](C)[C@H](O)[C@H](OC)[C@@H]3O)cc2)C(C)C)C(=O)OCc2c1cc1n(c2=O)Cc2cc3ccccc3nc2-1` (stereo partly drawn) [Example 8] (X1-[dP]LG[dL][dC](Me)[dV]-X2), the pIC50 was 7.40 in data set [1], 7.30 in data set [2] and 6.82 in data set [3].
